# Source: article PMC9550643 (iScience, 2022)
# Read-outs that look alike come from different tables or passages of the source.
# Key:
# [1] = molecular target: T1, estrogen receptor-α (ERα) (Homo sapiens, UniProt P03372); type: cell-based; conditions: iER-GFP cells, 2 h; mixtures as dilution series, chemicals 1 nM to 100 μM
# T1 sequence (P03372 1-595): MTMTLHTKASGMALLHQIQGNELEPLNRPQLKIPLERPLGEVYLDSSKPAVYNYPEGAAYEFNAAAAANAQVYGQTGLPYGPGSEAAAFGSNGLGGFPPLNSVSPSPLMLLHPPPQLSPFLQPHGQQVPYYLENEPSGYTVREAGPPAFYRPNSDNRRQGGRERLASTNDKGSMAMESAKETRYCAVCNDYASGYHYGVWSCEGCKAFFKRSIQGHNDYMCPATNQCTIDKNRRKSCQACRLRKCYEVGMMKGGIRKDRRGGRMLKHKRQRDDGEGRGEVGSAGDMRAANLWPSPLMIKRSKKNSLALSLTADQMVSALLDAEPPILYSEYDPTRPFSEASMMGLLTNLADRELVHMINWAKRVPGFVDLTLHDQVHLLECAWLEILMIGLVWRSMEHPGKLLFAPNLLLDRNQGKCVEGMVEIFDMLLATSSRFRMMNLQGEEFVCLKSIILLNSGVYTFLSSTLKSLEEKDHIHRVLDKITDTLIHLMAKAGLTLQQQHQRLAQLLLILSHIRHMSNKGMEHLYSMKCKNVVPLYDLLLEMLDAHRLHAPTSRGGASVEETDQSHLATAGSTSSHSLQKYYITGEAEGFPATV
# [2] = system: estrogen receptor; conditions: ref Kolle et al., 2010; cited from earlier work
# [3] = system: SRC-1, SRC-3, and phosphorylated RNA Pol II (serine 5); test: Immunofluorescence of co-activator and RNA Pol II recruitment to the PRL-array; type: cell-based, Human; conditions: GFP-ER and iER-GFP cells, 10 nM, 2 h
# [4] = system: dsRed2skl mRNA; type: cell-based, Human; conditions: 2 h
structure (smiles),measurement,setting,value
OC(c1ccc(Cl)cc1)(c1ccc(Cl)cc1)C(Cl)(Cl)Cl [Dicofol],chromatin binding activity (AUC) as share of the activity observed with E2,[1],at least 10%
CCOP(=S)(OCC)SCSP(=S)(OCC)OCC [ethion],chromatin binding activity (AUC) as share of the activity observed with E2,[1],at least 10%
"Clc1ccc(C(c2ccccc2Cl)C(Cl)(Cl)Cl)cc1 (centres unmarked) [o,p'-DDT]",chromatin binding activity (AUC) as share of the activity observed with E2,[1],at least 10%
COc1ccc(C(c2ccc(OC)cc2)C(Cl)(Cl)Cl)cc1 [Methoxychlor],chromatin binding activity (AUC) as share of the activity observed with E2,[1],at least 10%
CC(=O)[C@H]1CC[C@H]2[C@@H]3CCC4=CC(=O)CC[C@]4(C)[C@H]3CC[C@]12C [Progesterone],activity in yeast-based estrogenic assays,[2],(anti-)estrogenic activity
"C[C@]12CC[C@@H]3c4ccc(O)cc4CC[C@H]3[C@@H]1CC[C@@H]2O [E2, 17β-estradiol]",recruitment of SRC-3 to the PRL-array,[3],strong recruitment
same,"dsRed2skl FISH signal, increase above untreated",[4]; GFP-ER cells,3.2 fold
same,maximal induced dsRed2skl FISH signal,[4]; GFP-ER cells,"39,685 ± 2338 IU"
same,"dsRed2skl FISH signal, increase above untreated",[4]; iER-GFP cells,11.4 fold
same,maximal induced dsRed2skl FISH signal,[4]; iER-GFP cells,"234,008 ± 1329 IU"
same,"dsRed2skl FISH signal, increase above untreated",[4]; iGFP-ER cells,5.0 fold
same,maximal induced dsRed2skl FISH signal,[4]; iGFP-ER cells,"84,564 ± 628 IU"
C[C@]12C[C@H](O)[C@H]3[C@@H](CCC4=CC(=O)CC[C@@]43C)[C@@H]1CC[C@@H]2C(=O)CO [Corticosterone],activity in yeast-based estrogenic assays,[2],(anti-)estrogenic activity
O=S1OCC2C(CO1)C1(Cl)C(Cl)=C(Cl)C2(Cl)C1(Cl)Cl (centres unmarked) [endosulfan],chromatin binding activity (AUC) as share of the activity observed with E2,[1],at least 10%
